Test results: patent US10098351B2, “Herbicidal compounds” (SYNGENTA PARTICIPATIONS AG, priority 2014, dated 2018)

Tests used:
Format in all cases: in vivo
Abutilon theophrasti [1] = test: Post-emergence herbicidal activity, ABUTH; conditions: application post-emergence, 1000 g/Ha, evaluated after 13 days; 5=total damage to plant, 0=no damage to plant
Procedure: (§1) Seeds of a variety of test species were sown in standard soil in pots. After 8 days cultivation (post-emergence) under controlled conditions in a glasshouse (at 24/16° C., day/night; 14 hours light; 65% humidity), the plants were sprayed with an aqueous spray solution derived from the formulation of the technical active ingredient in acetone/water (50:50) solution containing 0.5% Tween 20 (polyoxyethelyene sorbitan monolaurate, CAS RN 9005-64-5). The test plants were then grown in a glasshouse under controlled conditions (at 24/16° C., day/night; 14 hours light; 65% humidity) and watered twice daily. After 13 days, the test was evaluated (5=total damage to plant; 0=no damage to plant).

Abutilon theophrasti [2] = test: Pre-emergence herbicidal activity, ABUTH; conditions: application pre-emergence, 1000 g/Ha, evaluated after 13 days; 5=total damage to plant, 0=no damage to plant
Procedure: as §1, with “After” for “After 8 days”, “for one day (pre-emergence)” for “(post-emergence)”

Lolium perenne [3] = test: Post-emergence herbicidal activity, LOLPE; conditions: application post-emergence, 1000 g/Ha, evaluated after 13 days; 5=total damage to plant, 0=no damage to plant
Procedure: as §1

Echinochloa crus-galli [4] = test: Pre-emergence herbicidal activity, ECHCG; conditions: application pre-emergence, 1000 g/Ha, evaluated after 13 days; 5=total damage to plant, 0=no damage to plant
Procedure: as §1, with “After” for “After 8 days”, “for one day (pre-emergence)” for “(post-emergence)”

Zea mays [5] = test: Post-emergence herbicidal activity, ZEAMX; conditions: application post-emergence, 1000 g/Ha, evaluated after 13 days; 5=total damage to plant, 0=no damage to plant
Procedure: as §1

Setaria faberi [6] = test: Post-emergence herbicidal activity, SETFA; conditions: application post-emergence, 1000 g/Ha, evaluated after 13 days; 5=total damage to plant, 0=no damage to plant
Procedure: as §1

Amaranthus retroflexus [7] = test: Post-emergence herbicidal activity, AMARE; conditions: application post-emergence, 1000 g/Ha, evaluated after 13 days; 5=total damage to plant, 0=no damage to plant
Procedure: as §1

Echinochloa crus-galli [8] = test: Post-emergence herbicidal activity, ECHCG; conditions: application post-emergence, 1000 g/Ha, evaluated after 13 days; 5=total damage to plant, 0=no damage to plant
Procedure: as §1

Amaranthus retroflexus [9] = test: Pre-emergence herbicidal activity, AMARE; conditions: application pre-emergence, 1000 g/Ha, evaluated after 13 days; 5=total damage to plant, 0=no damage to plant
Procedure: as §1, with “After” for “After 8 days”, “for one day (pre-emergence)” for “(post-emergence)”

Zea mays [10] = test: Pre-emergence herbicidal activity, ZEAMX; conditions: application pre-emergence, 1000 g/Ha, evaluated after 13 days; 5=total damage to plant, 0=no damage to plant
Procedure: as §1, with “After” for “After 8 days”, “for one day (pre-emergence)” for “(post-emergence)”

Lolium perenne [11] = test: Pre-emergence herbicidal activity, LOLPE; conditions: application pre-emergence, 1000 g/Ha, evaluated after 13 days; 5=total damage to plant, 0=no damage to plant
Procedure: as §1, with “After” for “After 8 days”, “for one day (pre-emergence)” for “(post-emergence)”

Setaria faberi [12] = test: Pre-emergence herbicidal activity, SETFA; conditions: application pre-emergence, 1000 g/Ha, evaluated after 13 days; 5=total damage to plant, 0=no damage to plant
Procedure: as §1, with “After” for “After 8 days”, “for one day (pre-emergence)” for “(post-emergence)”

| SMILES | ABUTH damage score (Abutilon theophrasti [1]) | ABUTH damage score (Abutilon theophrasti [2]) | LOLPE damage score (Lolium perenne [3]) | ECHCG damage score (Echinochloa crus-galli [4]) | ZEAMX damage score (Zea mays [5]) | SETFA damage score (Setaria faberi [6]) | AMARE damage score (Amaranthus retroflexus [7]) | ECHCG damage score (Echinochloa crus-galli [8]) | AMARE damage score (Amaranthus retroflexus [9]) | ZEAMX damage score (Zea mays [10]) | LOLPE damage score (Lolium perenne [11]) | SETFA damage score (Setaria faberi [12]) |
| --- | --- | --- | --- | --- | --- | --- | --- | --- | --- | --- | --- | --- |
| CN1C(=O)N(c2ncc(C(F)(F)F)s2)C(O)C1O (centres unmarked) [Compound A4, 4,5-dihydroxy-1-methyl-3-[5-(trifluoromethyl)thiazol-2-yl]imidazolidin-2-one] | 5 | 5 | 5 | 5 | 4 | 5 | 5 | 5 | 5 | 3 | 4 | 4 |
| CCCOC1C(O)N(c2ncc(C(F)(F)F)s2)C(=O)N1C (centres unmarked) [Compound A1] | 5 | 5 | 5 | 5 | 3 | 5 | 5 | 5 | 5 | 1 | 4 | 4 |
| CON1C(=O)N(c2ncc(C(F)(F)F)s2)C(O)C1C (centres unmarked) [Compound B7] | 5 | 5 | 5 | 4 | 4 | 5 | 5 | 5 | 5 | 3 | 4 | 5 |
| CCOC1C(O)N(c2ncc(C(C)C)s2)C(=O)N1C (centres unmarked) [Compound A10] | 4 | 0 | – | 0 | 0 | 2 | 3 | 2 | 4 | 0 | 0 | 0 |
| CN1CC(O)N(c2ncc(C(F)(F)F)s2)C1=O (centres unmarked) [Compound A5, 4-hydroxy-1-methyl-3-[5-(trifluoromethyl)thiazol-2-yl]imidazolidin-2-one] | 5 | 5 | 5 | 4 | 5 | 5 | 5 | 5 | 5 | 2 | 5 | 5 |
| CN1CC(O)N(c2ncc(C(C)(C)C)s2)C1=O (centres unmarked) [Compound A7] | 5 | 5 | 5 | 4 | 5 | 5 | 5 | 5 | 5 | 3 | 4 | 5 |
| CCOC1C(O)N(c2ncc(C(F)(F)F)s2)C(=O)N1C (centres unmarked) [Compound A2, 5-ethoxy-4-hydroxy-1-methyl-3-[5-(trifluoromethyl)thiazol-2-yl]imidazolidin-2-one] | 5 | 5 | 5 | 5 | 5 | 5 | 5 | 5 | 5 | 3 | 5 | 5 |
| COC1C(O)N(c2ncc(C(F)(F)F)s2)C(=O)N1C (centres unmarked) [Compound A3] | 5 | 5 | 5 | 5 | 4 | 5 | 5 | 5 | 5 | 2 | 5 | 5 |
| CCO[C@H]1C(O)N(c2ncc(C(F)(F)F)s2)C(=O)N1C (some centres unmarked) [Compound A9] | 3 | 2 | 3 | 1 | 2 | 4 | 5 | 2 | 5 | 1 | 2 | 4 |
| C[C@@H]1C(O)N(c2ncc(C(F)(F)F)s2)C(=O)N1C (mixture of isomers) [Compound A6] | 5 | 5 | 5 | 5 | 5 | 5 | 5 | 5 | 5 | 4 | 5 | 5 |
| CCO[C@@H]1C(O)N(c2ncc(C(F)(F)F)s2)C(=O)N1C (some centres unmarked) [Compound A8] | 5 | 5 | 5 | 5 | 5 | 5 | 5 | 5 | 5 | 3 | 4 | 5 |
